Laboratory results reported in patent publication US20200405697A1, “Antitumor Agent” (Taiho Pharmaceutical Co., Ltd, priority 2017, published 2020).

Each compound was assayed against T1, human RNR (histidine tagged human M1 and human M2 proteins) (Homo sapiens, UniProt P23921) (assay: Human RNR inhibition effect (dCDP formation from CDP)). Conditions: 10 μM CDP, 37° C. for 30 minutes, read-out: RNR inhibitory activity IC50.
T1 construct: made in house; host or cells: Escherichia coli
T1 sequence (P23921 1-792): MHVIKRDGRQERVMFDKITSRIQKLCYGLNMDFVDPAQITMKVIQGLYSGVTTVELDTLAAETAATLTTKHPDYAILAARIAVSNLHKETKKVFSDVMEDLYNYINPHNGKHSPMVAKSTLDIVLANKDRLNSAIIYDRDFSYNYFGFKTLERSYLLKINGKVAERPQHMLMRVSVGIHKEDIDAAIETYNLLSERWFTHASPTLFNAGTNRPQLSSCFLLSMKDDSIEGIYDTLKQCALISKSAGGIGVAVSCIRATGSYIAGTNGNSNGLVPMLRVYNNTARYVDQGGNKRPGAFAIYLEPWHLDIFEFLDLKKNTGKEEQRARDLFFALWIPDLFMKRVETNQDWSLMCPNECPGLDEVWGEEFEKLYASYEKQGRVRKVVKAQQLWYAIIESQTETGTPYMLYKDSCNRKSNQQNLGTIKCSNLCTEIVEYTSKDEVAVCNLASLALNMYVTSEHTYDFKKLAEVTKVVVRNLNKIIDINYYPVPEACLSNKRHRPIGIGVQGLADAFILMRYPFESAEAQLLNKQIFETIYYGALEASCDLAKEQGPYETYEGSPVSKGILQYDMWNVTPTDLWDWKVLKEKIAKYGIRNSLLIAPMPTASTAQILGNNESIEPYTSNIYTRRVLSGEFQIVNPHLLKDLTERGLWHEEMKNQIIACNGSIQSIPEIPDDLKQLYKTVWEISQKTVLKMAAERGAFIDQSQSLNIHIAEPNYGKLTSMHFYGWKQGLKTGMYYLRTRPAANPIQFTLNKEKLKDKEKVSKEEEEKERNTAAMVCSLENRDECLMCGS
Type: biochemical
Summary of the method: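 His-tagged human M1 (isoform 1) and N-terminal 59-aa-truncated M2 (isoform 2), E. coli-expressed, Ni-purified, preincubated 20 min with compound (1% DMSO). Reaction with 10 μM CDP, 2 mM ATP, 0.24 mM NADPH, 6 mM DTT, 4 mM Mg acetate, 100 mM KCl, 50 mM HEPES pH 7.2, 30 min at 37° C. dCDP formed quantified by reverse-phase HPLC after heat stop.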

| SMILES | IC50 |
| --- | --- |
| Cc1c(C(F)(F)F)ccc(F)c1[C@@H](C)[C@H](NS(=O)(=O)c1ccc(Cl)cc1C(N)=O)c1n[nH]c(=O)o1 [Example 27, 5-chloro-2-(N-((1S,2R)-2-(6-fluoro-2-methyl-3-(trifluoromethyl)phenyl)-1-(5-oxo-4,5-dihydro-1,3,4-oxadiazol-2-yl)propyl)sulfamoyl)benzamide] | 550 nM |
| C[C@H](c1cc(F)cc2ccccc12)[C@H](NS(=O)(=O)c1ccc(Cl)cc1C(N)=O)c1n[nH]c(=O)o1 [Example 9, 5-chloro-2-(N-((1S,2R)-2-(3-fluoronaphthalen-1-yl)-1-(5-oxo-4,5-dihydro-1,3,4-oxadiazol-2-yl)propyl)sulfamoyl)benzamide] | 600 nM |
| COc1cc(Cl)ccc1S(=O)(=O)N[C@H](c1n[nH]c(=O)o1)[C@H](C)c1cccc(C)c1C(C)C [Example 85, 4-chloro-N-((1S,2R)-2-(2-isopropyl-3-methylphenyl)-1-(5-oxo-4,5-dihydro-1,3,4-oxadiazol-2-yl)propyl)-2-methoxybenzenesulfonamide] | 840 nM |
| COc1cc(N)ccc1S(=O)(=O)N[C@H](c1n[nH]c(=O)o1)[C@H](C)c1cccc2c1CCC2 [Example 270, 4-amino-N-((1S,2R)-2-(2,3-dihydro-1H-inden-4-yl)-1-(5-oxo-4,5-dihydro-1,3,4-oxadiazol-2-yl)propyl)-2-methoxybenzenesulfonamide] | 730 nM |
| Cc1ccc(F)c([C@@H](C)[C@H](NS(=O)(=O)c2ccc(Cl)c3c2C(=O)CCC3)c2n[nH]c(=O)o2)c1C [Example 107, 4-chloro-N-((1S,2R)-2-(6-fluoro-2,3-diinethylphenyl)-1-(5-oxo-4,5-dihydro-1,3,4-oxadiazol-2-yl)propyl)-8-oxo-5,6,7,8-tetrahydronaphthalene-1-sulfonamide] | 240 nM |
| Cc1ccc(F)c([C@@H](C)[C@H](NS(=O)(=O)c2cccc3c2OCCO3)c2n[nH]c(=O)o2)c1C [Example 164, N-((1S,2R)-2-(6-fluoro-2,3-dimethylphenyl)-1-(5-oxo-4,5-dihydro-1,3,4-oxadiazol-2-yl)propyl)-2,3-dihydrobenzo[b][1,4]dioxin-5-sulfonamide] | 330 nM |
| Cc1ccc(F)c([C@@H](C)[C@H](NS(=O)(=O)c2c(F)cc(Cl)cc2F)c2n[nH]c(=O)o2)c1C [Example 111, 4-chloro-2,6-difluoro-N-((1S,2R)-2-(6-fluoro-2,3-dimethylphenyl)-1-(5-oxo-4,5-dihydro-1,3,4-oxadiazol-2-yl)propyl)benzenesulfonamide] | 270 nM |
| Cc1c(Br)ccc(F)c1[C@@H](C)[C@H](NS(=O)(=O)c1ccc(Cl)c2c1OCCC2=O)c1n[nH]c(=O)o1 [Example 124, N-((1S,2R)-2-(3-bromo-6-fluoro-2-methylphenyl)-1-(5-oxo-4,5-dihydro-1,3,4-oxadiazol-2-yl)propyl)-5-chloro-4-oxochroman-8-sulfonamide] | 90 nM |
| CCn1cc(-c2ccc(F)c([C@@H](C)[C@H](NS(=O)(=O)c3ccc(Cl)cc3OC)c3n[nH]c(=O)o3)c2C)cn1 [Example 310, 4-chloro-N-((1S,2R)-2-(3-(1-ethyl-1H-pyrazol-4-yl)-6-fluoro-2-methylphenyl)-1-(5-oxo-4,5-dihydro-1,3,4-oxadiazol-2-yl)propyl)-2-methoxybenzenesulfonamide] | 170 nM |
| Cc1ccc(S(=O)(=O)N[C@H](c2n[nH]c(=O)o2)[C@H](C)c2c(F)ccc(C)c2C)c(C(N)=O)c1 [Example 10, 2-(N-((1S,2R)-2-(3-6-fluoro-2,3-dimethylphenyl)-1-(5-oxo-4,5-dihydro-1,3,4-oxadiazol-2-yl)propyl)sulfamoyl)-5-methylbenzamide] | 140 nM |
| Cc1c(Br)ccc(F)c1[C@@H](C)[C@H](NS(=O)(=O)c1ccc(C(F)(F)F)cc1C(N)=O)c1n[nH]c(=O)o1 [Example 42, 2-(N-((1S,2R)-2-(3-bromo-6-fluoro-2-methylphenyl)-1-(5-oxo-4,5-dihydro-1,3,4-oxadiazol-2-yl)propyl)sulfamoyl)-5-(trifluoromethyl)benzamide] | 200 nM |
